{"source": "the NIST ThermoML archive (doi:10.1016/j.jct.2012.05.015)", "settings": "Liquid, Calculated from knudsen effusion weight loss", "note": "Values joined by “and” are separate entries in the source; they are usually repeats but may differ in a detail not shown here. Equal entries are not always repeated. Numbers after ± are expanded uncertainties."}
{"smiles": "Nc1cc(N)nc(N)n1", "note": "[2,4,6-pyrimidinetriamine]", "values": [{"measurement": "vapor or sublimation pressure", "setting": "391.14 K", "result": "7.42e-05 ± 3.7e-06 kPa and 7.31e-05 ± 3.7e-06 kPa and 7.14e-05 ± 3.6e-06 kPa"}, {"measurement": "vapor or sublimation pressure", "setting": "393.15 K", "result": "9.48e-05 ± 4.8e-06 kPa and 8.89e-05 ± 4.5e-06 kPa and 8.51e-05 ± 4.3e-06 kPa"}, {"measurement": "vapor or sublimation pressure", "setting": "395.15 K", "result": "0.00011 ± 6e-06 kPa and 0.000107 ± 5e-06 kPa and 0.0001 ± 5e-06 kPa"}, {"measurement": "vapor or sublimation pressure", "setting": "397.13 K", "result": "0.000131 ± 7e-06 kPa and 0.000124 ± 6e-06 kPa and 0.000141 ± 7e-06 kPa"}, {"measurement": "vapor or sublimation pressure", "setting": "399.13 K", "result": "0.000167 ± 8e-06 kPa and 0.000166 ± 8e-06 kPa and 0.000148 ± 7e-06 kPa"}, {"measurement": "vapor or sublimation pressure", "setting": "401.15 K", "result": "0.0002 ± 1e-05 kPa and 0.000188 ± 9e-06 kPa and 0.000186 ± 9e-06 kPa"}, {"measurement": "vapor or sublimation pressure", "setting": "403.15 K", "result": "0.000247 ± 1.2e-05 kPa and 0.000237 ± 1.2e-05 kPa and 0.000215 ± 1.1e-05 kPa"}, {"measurement": "vapor or sublimation pressure", "setting": "405.15 K", "result": "0.000292 ± 1.5e-05 kPa and 0.000287 ± 1.4e-05 kPa and 0.000258 ± 1.3e-05 kPa"}, {"measurement": "vapor or sublimation pressure", "setting": "407.15 K", "result": "0.000345 ± 1.7e-05 kPa and 0.000316 ± 1.6e-05 kPa and 0.000319 ± 1.6e-05 kPa"}, {"measurement": "vapor or sublimation pressure", "setting": "409.12 K", "result": "0.000393 ± 2e-05 kPa and 0.000407 ± 2e-05 kPa and 0.000375 ± 1.9e-05 kPa"}, {"measurement": "vapor or sublimation pressure", "setting": "411.12 K", "result": "0.000484 ± 2.4e-05 kPa and 0.000487 ± 2.4e-05 kPa and 0.000439 ± 2.2e-05 kPa"}, {"measurement": "vapor or sublimation pressure", "setting": "413.15 K", "result": "0.000593 ± 3e-05 kPa and 0.00054 ± 2.7e-05 kPa and 0.000536 ± 2.7e-05 kPa"}]}
{"smiles": "Nc1ccnc(N)n1", "note": "[2,4-pyrimidinediamine]", "values": [{"measurement": "vapor or sublimation pressure", "setting": "335.12 K", "result": "7.78e-05 ± 3.9e-06 kPa and 7.75e-05 ± 3.9e-06 kPa and 7.72e-05 ± 3.9e-06 kPa"}, {"measurement": "vapor or sublimation pressure", "setting": "338.18 K", "result": "0.000109 ± 5e-06 kPa and 0.00011 ± 6e-06 kPa and 0.000105 ± 5e-06 kPa"}, {"measurement": "vapor or sublimation pressure", "setting": "341.17 K", "result": "0.00015 ± 8e-06 kPa and 0.000145 ± 7e-06 kPa and 0.000141 ± 7e-06 kPa"}, {"measurement": "vapor or sublimation pressure", "setting": "344.12 K", "result": "0.000208 ± 1e-05 kPa and 0.000202 ± 1e-05 kPa and 0.000212 ± 1.1e-05 kPa"}, {"measurement": "vapor or sublimation pressure", "setting": "347.17 K", "result": "0.000291 ± 1.5e-05 kPa and 0.000283 ± 1.4e-05 kPa and 0.000274 ± 1.4e-05 kPa"}, {"measurement": "vapor or sublimation pressure", "setting": "350.17 K", "result": "0.000391 ± 2e-05 kPa and 0.000378 ± 1.9e-05 kPa"}, {"measurement": "vapor or sublimation pressure", "setting": "353.12 K", "result": "0.000554 ± 2.8e-05 kPa and 0.000535 ± 2.7e-05 kPa and 0.000532 ± 2.7e-05 kPa"}, {"measurement": "vapor or sublimation pressure", "setting": "356.18 K", "result": "0.00074 ± 3.7e-05 kPa and 0.000736 ± 3.7e-05 kPa and 0.000697 ± 3.5e-05 kPa"}, {"measurement": "vapor or sublimation pressure", "setting": "359.16 K", "result": "0.000989 ± 4.9e-05 kPa and 0.000945 ± 4.7e-05 kPa and 0.000904 ± 4.5e-05 kPa"}]}
